Data reported in PubChem BioAssay AID256 (DTP/NCI, 2004).
“And” between values parts separate entries of the source, which are not always exact repeats. Equal entries are not always repeated. Toxic doses and inconclusive results are not listed. Rule for the calls: active = survival T/C of 150% or more; inactive = T/C below 125% in these data.

System: CD2F1 mice, L1210 leukemia ip, survival T/C
Experiment: NCI In Vivo Anticancer Drug Screen. Data for tumor model L1210 Leukemia (intraperitoneal) in CD2F1 (CDF1) mice
Conditions: higher = longer survival
Outline: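 Ratio T/C, where T is the treated-group value and C the vehicle-dosed control value, from mice implanted with a transplantable tumor.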

[1] = endpoint: mean survival time, dose: 100.0 mg/kg/injection, schedule: Q01DX009 (ip), vehicle: saline with Tween-80
[2] = endpoint: mean survival time, dose: 100.0 mg/kg/injection, schedule: Q04DX003 (ip), vehicle: saline with Tween-80
[3] = endpoint: mean survival time, dose: 200.0 mg/kg/injection, schedule: Q01DX009 (ip), vehicle: saline with Tween-80
[4] = endpoint: mean survival time, dose: 200.0 mg/kg/injection, schedule: Q04DX003 (ip), vehicle: saline with Tween-80
[5] = endpoint: mean survival time, dose: 400.0 mg/kg/injection, schedule: Q01DX009 (ip), vehicle: saline with Tween-80
[6] = endpoint: mean survival time, dose: 400.0 mg/kg/injection, schedule: Q04DX003 (ip), vehicle: saline with Tween-80
[7] = endpoint: mean survival time, dose: 100.0 mg/kg/injection, schedule: Q04DX003 (ip), vehicle: saline
[8] = endpoint: mean survival time, dose: 200.0 mg/kg/injection, schedule: Q04DX003 (ip), vehicle: saline
[9] = endpoint: mean survival time, dose: 400.0 mg/kg/injection, schedule: Q04DX003 (ip), vehicle: saline
[10] = endpoint: mean survival time, dose: 100.0 mg/kg/injection, schedule: Q01DX001 (ip), vehicle: saline with Tween-80
[11] = endpoint: mean survival time, dose: 200.0 mg/kg/injection, schedule: Q01DX001 (ip), vehicle: saline with Tween-80
[12] = endpoint: mean survival time, dose: 400.0 mg/kg/injection, schedule: Q01DX001 (ip), vehicle: saline with Tween-80
[13] = endpoint: mean survival time, dose: 50.0 mg/kg/injection, schedule: Q01DX009 (ip), vehicle: saline with Tween-80
[14] = endpoint: mean survival time, dose: 50.0 mg/kg/injection, schedule: Q04DX002 (ip), vehicle: saline with Tween-80
[15] = endpoint: mean survival time, dose: 100.0 mg/kg/injection, schedule: Q04DX002 (ip), vehicle: saline with Tween-80
[16] = endpoint: mean survival time, dose: 400.0 mg/kg/injection, schedule: Q04DX002 (ip), vehicle: saline with Tween-80
[17] = endpoint: mean survival time, dose: 200.0 mg/kg/injection, schedule: Q04DX002 (ip), vehicle: saline with Tween-80

Measured: T/C

CC(C)(C)C1CCC(OC(=O)c2ccccc2C(=O)O)CC1 (stereo not given)
inactive: [1] 100 % of control | [2] 100 % of control | [3] 97 % of control | [4] 98 % of control | [5] 89 % of control | [6] 96 % of control

CSC(=S)N(C)N
inactive: [1] 104 % of control | [2] 102 % of control | [3] 103 % of control | [4] 100 % of control | [5] 104 % of control | [6] 102 % of control

CCn1ncc2ccc(N(CO)CO)cc21
inactive: [7] 103 % of control | [8] 106 % of control | [9] 100 % of control

CC(C)(SCC(N)C(=O)O)c1ccc(-c2ccccc2)cc1 (stereo not given)
inactive: [10] 88 % of control | [11] 86 % of control | [12] 91 % of control

CCSc1nc(C)cc(Cl)n1
inactive: [13] 102 % of control | [1] 104 % of control | [3] 105 % of control

O=C(Cc1ccccc1)NCc1ccccc1
inactive: endpoint: mean survival time, dose: 6.25 mg/kg/injection, schedule: Q01DX001 (ip), vehicle: saline 101 % of control | endpoint: mean survival time, dose: 12.5 mg/kg/injection, schedule: Q01DX001 (ip), vehicle: saline 94 % of control | endpoint: mean survival time, dose: 25.0 mg/kg/injection, schedule: Q01DX001 (ip), vehicle: saline 101 % of control

CC(O)C[As](=O)(O)c1ccccc1Cl (stereo not given)
inactive: endpoint: mean survival time, dose: 6.25 mg/kg/injection, schedule: Q04DX003 (ip), vehicle: saline 107 % of control | endpoint: mean survival time, dose: 12.5 mg/kg/injection, schedule: Q04DX003 (ip), vehicle: saline 107 % of control

ClC12CCC(CC1)C2
inactive: [7] 100 % of control | [8] 94 % of control | [9] 100 % of control

O=C1CCCO1
inactive: endpoint: mean survival time, dose: 12.0 mg/kg/injection, schedule: Q01DX009 (ip), vehicle: saline 99 % of control | endpoint: mean survival time, dose: 50.0 mg/kg/injection, schedule: Q01DX009 (ip), vehicle: saline 91 % of control | endpoint: mean survival time, dose: 100.0 mg/kg/injection, schedule: Q01DX009 (ip), vehicle: saline 92 % of control | endpoint: mean survival time, dose: 100.0 mg/kg/injection, schedule: Q04DX002 (ip), vehicle: saline 107 % of control | endpoint: mean survival time, dose: 200.0 mg/kg/injection, schedule: Q04DX002 (ip), vehicle: saline 98 % of control | endpoint: mean survival time, dose: 400.0 mg/kg/injection, schedule: Q04DX002 (ip), vehicle: saline 102 % of control

COc1ccc(OC)c(CCc2cc(OC)ccc2OC)c1
inactive: endpoint: mean survival time, dose: 12.5 mg/kg/injection, schedule: Q04DX003 (ip), vehicle: other 97 % of control | endpoint: mean survival time, dose: 25.0 mg/kg/injection, schedule: Q04DX003 (ip), vehicle: other 86 % of control | endpoint: mean survival time, dose: 50.0 mg/kg/injection, schedule: Q04DX003 (ip), vehicle: other 97 % of control

O=[N+]([O-])c1ccc(Oc2ccc(S(=O)(=O)O)cc2)cc1
inactive: endpoint: mean survival time, dose: 25.0 mg/kg/injection, schedule: Q04DX002 (ip), vehicle: saline with Tween-80 95 % of control | [14] 103 % of control | [15] 91 % of control

O=C(NC(=S)Nc1cccc2ccccc12)c1cccc(Br)c1
inactive: [14] 89 % of control and 98 % of control | [10] 96 % of control | [1] 98 % of control and 104 % of control | [2] 96 % of control | [11] 95 % of control | [3] 96 % of control and 98 % of control | [4] 100 % of control | [12] 95 % of control | [5] 102 % of control and 106 % of control | [16] 90 % of control and 95 % of control | [6] 96 % of control

CC(=O)CC(C)=NCCN=C(C)CC(C)=O.[Pd]
inactive: endpoint: mean survival time, dose: 3.13 mg/kg/injection, schedule: Q04DX003 (ip), vehicle: distilled water + Tween-80 93 % of control | endpoint: mean survival time, dose: 6.25 mg/kg/injection, schedule: Q04DX003 (ip), vehicle: distilled water + Tween-80 108 % of control | endpoint: mean survival time, dose: 12.5 mg/kg/injection, schedule: Q04DX003 (ip), vehicle: distilled water + Tween-80 100 % of control

COc1ccc(Cl)c2c1C(=O)C(=O)N2
inactive: [2] 91 % of control | [4] 98 % of control | [6] 98 % of control

O=C1c2ccccc2C(=O)c2c1cccc2S(=O)(=O)O
inactive: [11] 97 % of control

COc1cccc(C(=O)c2ccccc2NC(C)=O)c1
inactive: [1] 101 % of control | [3] 103 % of control | [5] 98 % of control

CCCCCCCCCCCCCCCC(=O)N(CCCN(CC)CC)C(C)CCCN(CC)CC (stereo not given)
inactive: endpoint: mean survival time, dose: 1.56 mg/kg/injection, schedule: Q01DX009 (ip), vehicle: water 102 % of control | endpoint: mean survival time, dose: 3.13 mg/kg/injection, schedule: Q01DX009 (ip), vehicle: water 100 % of control | endpoint: mean survival time, dose: 6.25 mg/kg/injection, schedule: Q01DX009 (ip), vehicle: water 96 % of control

O=C(O)C(O)C(O)C(=O)O.[NH-]C1CCCCCC1[NH-].[Pt+2] (stereo not given)
inactive: endpoint: mean survival time, dose: 2.5 mg/kg/injection, schedule: Q04DX003 (ip), vehicle: dextrose 123 % of control
active: endpoint: mean survival time, dose: 5.0 mg/kg/injection, schedule: Q04DX003 (ip), vehicle: dextrose 153 % of control | endpoint: mean survival time, dose: 20.0 mg/kg/injection, schedule: Q04DX003 (ip), vehicle: dextrose 152 % of control and 273 % of control

CCC(=O)c1cccc([N+](=O)[O-])c1
inactive: [10] 100 % of control | [1] 96 % of control | [2] 102 % of control | [11] 104 % of control | [3] 97 % of control | [4] 102 % of control | [12] 93 % of control | [5] 97 % of control | [6] 98 % of control

COc1ccc(NC(=O)CCl)cc1
inactive: endpoint: mean survival time, dose: 25.0 mg/kg/injection, schedule: Q01DX009 (ip), vehicle: Klucel (hydroxypropylcellulose) (HPC) 96 % of control and 98 % of control | endpoint: mean survival time, dose: 50.0 mg/kg/injection, schedule: Q01DX009 (ip), vehicle: Klucel (hydroxypropylcellulose) (HPC) 96 % of control and 98 % of control | endpoint: mean survival time, dose: 100.0 mg/kg/injection, schedule: Q01DX009 (ip), vehicle: Klucel (hydroxypropylcellulose) (HPC) 96 % of control and 104 % of control

C/C=C/C=C1/OC(C)=C(C(C)=O)C1=O
inactive: endpoint: mean survival time, dose: 12.5 mg/kg/injection, schedule: Q01DX009 (ip), vehicle: saline with Tween-80 96 % of control and 97 % of control | endpoint: mean survival time, dose: 25.0 mg/kg/injection, schedule: Q01DX009 (ip), vehicle: saline with Tween-80 90 % of control and 95 % of control | [13] 90 % of control and 109 % of control | [1] 100 % of control and 106 % of control | [3] 100 % of control

CC(=O)Oc1c(Br)cc2cc(Br)ccc2c1Br
inactive: [15] 90 % of control | [17] 98 % of control | [16] 98 % of control

CCC1(O)C(=O)OCc2c1cc1n(c2=O)Cc2cc3cc([N+](=O)[O-])ccc3nc2-1 (stereo not given)
219 % of control and 103 % of control: endpoint: median survival time, dose: 15.5 mg/kg/injection, schedule: Q04DX002 (ip), vehicle: saline with Tween-80
active: endpoint: median survival time, dose: 3.63 mg/kg/injection, schedule: Q04DX002 (ip), vehicle: saline with Tween-80 185 % of control | endpoint: median survival time, dose: 7.25 mg/kg/injection, schedule: Q04DX002 (ip), vehicle: saline with Tween-80 233 % of control | endpoint: median survival time, dose: 7.5 mg/kg/injection, schedule: Q04DX002 (ip), vehicle: saline with Tween-80 183 % of control

CCCCCCCCCCCCCCCC(=O)Nc1ccc2c(c1)[nH]c(=O)c1cc(NC(=O)CCCCCCCCCCCCCCC)ccc12
inactive: [15] 98 % of control | [17] 111 % of control | [16] 102 % of control

CCOC(CSCC#N)OCC
inactive: endpoint: mean survival time, dose: 12.5 mg/kg/injection, schedule: Q01DX009 (ip), vehicle: saline sonified 102 % of control | endpoint: mean survival time, dose: 12.5 mg/kg/injection, schedule: Q04DX003 (ip), vehicle: saline sonified 98 % of control | endpoint: mean survival time, dose: 25.0 mg/kg/injection, schedule: Q01DX009 (ip), vehicle: saline sonified 104 % of control | endpoint: mean survival time, dose: 25.0 mg/kg/injection, schedule: Q04DX003 (ip), vehicle: saline sonified 98 % of control | endpoint: mean survival time, dose: 50.0 mg/kg/injection, schedule: Q01DX009 (ip), vehicle: saline sonified 102 % of control | endpoint: mean survival time, dose: 50.0 mg/kg/injection, schedule: Q04DX003 (ip), vehicle: saline sonified 98 % of control

CS(C)=C1C(=O)NC(=S)NC1=O
inactive: endpoint: median survival time, dose: 20.75 mg/kg/injection, schedule: Q01DX009 (ip), vehicle: saline with Tween-80 108 % of control | endpoint: median survival time, dose: 41.5 mg/kg/injection, schedule: Q01DX009 (ip), vehicle: saline with Tween-80 102 % of control | endpoint: median survival time, dose: 83.0 mg/kg/injection, schedule: Q01DX009 (ip), vehicle: saline with Tween-80 111 % of control | endpoint: median survival time, dose: 166.0 mg/kg/injection, schedule: Q01DX009 (ip), vehicle: saline with Tween-80 107 % of control
